# Test results published in publication PMC11375437, “Selective labelling of GBA2 in cells with fluorescent β-D-arabinofuranosyl cyclitol aziridines” (Chemical Science, 2024).
# Biological target: T1, rhGBA1 (Homo sapiens, UniProt P04062, R534H)
# T1 construct: purchased Sanofi Genzyme (gift) Cerezyme®
# T1 sequence (P04062 40-536 R534H): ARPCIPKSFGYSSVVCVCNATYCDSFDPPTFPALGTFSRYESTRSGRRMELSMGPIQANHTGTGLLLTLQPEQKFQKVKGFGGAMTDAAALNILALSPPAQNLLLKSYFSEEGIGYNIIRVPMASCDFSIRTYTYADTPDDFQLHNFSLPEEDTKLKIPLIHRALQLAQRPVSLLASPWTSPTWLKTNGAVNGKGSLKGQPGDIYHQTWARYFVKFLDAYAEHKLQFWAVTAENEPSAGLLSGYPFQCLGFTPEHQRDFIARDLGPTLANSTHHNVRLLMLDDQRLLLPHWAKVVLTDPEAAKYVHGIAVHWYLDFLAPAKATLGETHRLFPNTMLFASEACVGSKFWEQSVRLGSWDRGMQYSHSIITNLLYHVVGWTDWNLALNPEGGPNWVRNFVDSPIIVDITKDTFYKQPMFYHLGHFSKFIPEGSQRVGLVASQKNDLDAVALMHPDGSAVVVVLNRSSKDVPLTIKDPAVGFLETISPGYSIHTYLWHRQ
# Assay: Labelling of GBA2 OE lysate spiked with rhGBA1, residual rhGBA1 read out with ABP 10 or 11
# Format: biochemical
# Conditions: GBA2 OE lysate spiked with 3 ng rhGBA1; 30 min
# Description: To this end, lysates of HEK293T cells containing all β-glucosidases (endogenous GBA1 with overexpressed GBA2 and GBA3) were treated with ABPs 3, 4, 5 or 7, followed by protein separation by SDS-PAGE and fluorescence scanning of the wet gel slabs. […] In contrast, the β-D-Araf aziridine ABPs 3 and 4 selectively labelled GBA2 at a concentration of 100 nM, while Cy5 tagged ABP 5 did so at 500 nM. The GBA2 selectivity of β-D-Araf cyclitol aziridines 3, 4 and 5 was confirmed in a mixture of a lysate of overexpressed GBA2 cells spiked with 3 ng rhGBA1 (Fig. 2C and ESI Fig. S3 ^†). […] Therefore, only a combined inactivation rate constant (kinact) and binding constant (KI) ratio (kinact/KI) could be measured. […] Importantly, no labelling of GBA1 or GBA3 was detected under varying pH and time conditions (ESI Fig. S4-2 ^†). […]
# 2.8 β-Glucosidase inactivation visualized by competitive ABPP with SDS-PAGE In general, samples containing GBA1, GBA2 or GBA3 (see the exact constitution of these samples in the described case) are first incubated (in vitro or in situ) with the inactivator compounds, subsequently, the fluorescent readout ABPs were added and incubated with the mixture to reveal the residual active β-glucosidase enzymes. […]
row,SMILES,Concentration at which marginal GBA1 labelling occurs [µM]
1,CC1=CC(C)=[N+]2C1=C(CCCCc1cn(CCCCCCCCN3[C@@H]4[C@H](CO)[C@@H](O)[C@H](O)[C@@H]43)nn1)c1c(C)cc(C)n1[B-]2(F)F (some centres unmarked) [ABP 3],10
2,COc1ccc(C2=[N+]3C(=C(CCCCc4cn(CCCCCCCCN5[C@@H]6[C@H](CO)[C@@H](O)[C@H](O)[C@@H]65)nn4)c4ccc(-c5ccc(OC)cc5)n4[B-]3(F)F)C=C2)cc1 (some centres unmarked) [ABP 4],10
